Patent US6610273B2, “Process for making chemically stable C-17/21 OH 20-ketosteroid aerosol products” (3M Innovative Properties Company, priority 1999, dated 2003)

Key:
[1] = cited from earlier work; for Chemical stability of solution MDI formulation (in words): solution formulations, HFC propellant, prior publications
[2] = assay type: physicochemical
Experimental: (§1) At ambient temperature, a 3 mL ethanol solution of budesonide (0.007 M) was mixed with 0.1 g of aluminum oxide (Aldrich, neutral, activated Brockmann I, 150 mesh), which mimics aluminum oxide existing on the inner surface of aluminum containers. Each aliquot was filtered with a syringe filter and diluted with acetonitrile by 20 times for HPLC analysis to determine the recovery of budesonide with respect to the initial concentration. The recoveries of budesonide were compared with a reference, which contained the same concentration of budesonide but in ethanol solution without aluminum oxide.
as §1, with “triamcinolone acetonide” for “budesonide”
as §1, with “dexamethasone” for “budesonide”, “aliquote” for “aliquot”, “recoveries” for “recovery”, “inital” for “initial”

[3] = Solubility testing of budesonide in P134a and P227 formulations at approximately 5° C.; assay type: physicochemical

**Q.** Which “Chemical stability of solution MDI formulation (in words)” value [1] does the source give for `CCC(=O)OCC(=O)[C@@]1(OC(=O)CC)[C@@H](C)C[C@H]2[C@@H]3CCC4=CC(=O)C=C[C@]4(C)[C@@]3(Cl)[C@@H](O)C[C@@]21C` [beclomethasone dipropionate] here?
**A.** surprisingly chemically stable

**Q.** Which “Degradation rate in ethanol/Al2O3 relative to isomer 21-BMP (17-OH)” value [2] does the source give for `CCC(=O)O[C@]1(C(=O)CO)[C@@H](C)C[C@H]2[C@@H]3CCC4=CC(=O)C=C[C@]4(C)[C@@]3(Cl)[C@@H](O)C[C@@]21C` [beclomethasone 17-monopropionate] here?
**A.** about 100 times

**Q.** Which results are given for `CCCC1O[C@@H]2C[C@H]3[C@@H]4CCC5=CC(=O)C=C[C@]5(C)[C@H]4[C@@H](O)C[C@]3(C)[C@]2(C(=O)CO)O1` (stereo partly drawn) [budesonide]?
**A.** Degradation in the presence of aluminum oxide (in words) [2]: almost totally consumed; Budesonide Solubility, MEAN ([3]; P134a, 5° C.): 0.012 mg/g; Budesonide Solubility, sample 1 ([3]; P134a, 5° C.): 0.013 mg/g; Budesonide Solubility, sample 2 ([3]; P134a, 5° C.): 0.010 mg/g; Budesonide Solubility, MEAN ([3]; P134a/5% EtOH, 5° C.): 0.465 mg/g; Budesonide Solubility, sample 1 ([3]; P134a/5% EtOH, 5° C.): 0.459 mg/g; Budesonide Solubility, sample 2 ([3]; P134a/5% EtOH, 5° C.): 0.471 mg/g; Budesonide Solubility, MEAN ([3]; P134a/10% EtOH, 5° C.): 1.382 mg/g; Budesonide Solubility, sample 1 ([3]; P134a/10% EtOH, 5° C.): 1.370 mg/g; Budesonide Solubility, sample 2 ([3]; P134a/10% EtOH, 5° C.): 1.394 mg/g; Budesonide Solubility, MEAN ([3]; P134a/15% EtOH, 5° C.): 2.699 mg/g; Budesonide Solubility, sample 1 ([3]; P134a/15% EtOH, 5° C.): 2.686 mg/g; Budesonide Solubility, sample 2 ([3]; P134a/15% EtOH, 5° C.): 2.711 mg/g; Budesonide Solubility, MEAN ([3]; P134a/20% EtOH, 5° C.): 4.360 mg/g; Budesonide Solubility, sample 1 ([3]; P134a/20% EtOH, 5° C.): 4.329 mg/g; Budesonide Solubility, sample 2 ([3]; P134a/20% EtOH, 5° C.): 4.390 mg/g; Budesonide Solubility, MEAN ([3]; P227, 5° C.): 0.016 mg/g; Budesonide Solubility, sample 1 ([3]; P227, 5° C.): 0.017 mg/g; Budesonide Solubility, sample 2 ([3]; P227, 5° C.): 0.015 mg/g; Budesonide Solubility, MEAN ([3]; P227/5% EtOH, 5° C.): 0.657 mg/g; Budesonide Solubility, sample 1 ([3]; P227/5% EtOH, 5° C.): 0.652 mg/g; Budesonide Solubility, sample 2 ([3]; P227/5% EtOH, 5° C.): 0.661 mg/g; Budesonide Solubility, MEAN ([3]; P227/10% EtOH, 5° C.): 1.703 mg/g; Budesonide Solubility, sample 1 ([3]; P227/10% EtOH, 5° C.): 1.698 mg/g; Budesonide Solubility, sample 2 ([3]; P227/10% EtOH, 5° C.): 1.707 mg/g; Budesonide Solubility, MEAN ([3]; P227/15% EtOH, 5° C.): 2.98 mg/g; Budesonide Solubility, sample 1 ([3]; P227/15% EtOH, 5° C.): 2.952 mg/g; Budesonide Solubility, sample 2 ([3]; P227/15% EtOH, 5° C.): 3.008 mg/g; Budesonide Solubility, MEAN ([3]; P227/20% EtOH, 5° C.): 4.435 mg/g; Budesonide Solubility, sample 1 ([3]; P227/20% EtOH, 5° C.): 4.387 mg/g; Budesonide Solubility, sample 2 ([3]; P227/20% EtOH, 5° C.): 4.483 mg/g

**Q.** Which “Chemical stability of solution MDI formulation (in words)” value [1] does the source give for `CC(C)C(=O)OCC(=O)[C@@]12O[C@H](C3CCCCC3)O[C@@H]1C[C@H]1[C@@H]3CCC4=CC(=O)C=C[C@]4(C)[C@H]3[C@@H](O)C[C@@]12C` [ciclesonide] here?
**A.** surprisingly chemically stable

**Q.** Which “Degradation in aqueous formulations (in words)” value ([1]; aqueous formulations in neutral or basic solutions, WO96/40042) does the source give for `CC1(C)O[C@@H]2C[C@H]3[C@@H]4CCC5=CC(=O)C=C[C@]5(C)[C@@]4(F)[C@@H](O)C[C@]3(C)[C@]2(C(=O)CO)O1` [triamcinolone acetonide] here?
**A.** undergo oxidative degradation catalyzed by trace levels of metal ions

**Q.** Which “Degradation in the presence of aluminum oxide (in words)” value [2] does the source give for `C[C@@H]1C[C@H]2[C@@H]3CCC4=CC(=O)C=C[C@]4(C)[C@@]3(F)[C@@H](O)C[C@]2(C)[C@@]1(O)C(=O)CO` [dexamethasone] here?
**A.** completely degrades
